This note sets out measurements from patent EP1173432B9, “PIPERIDINE-INDOLE COMPOUNDS HAVING 5-HT6 AFFINITY” (NPS Allelix Corp., priority 1999, dated 2000).

Test [1] addresses 5-HT7 receptors (Homo sapiens, UniProt P34969). Kind of test: Binding selectivity for 5-HT6 relative to the 5-HT7 receptor. The note with it: selectivity 5-HT6 over 5-HT7.
In test [2] the target is T1, human 5-HT2C (Homo sapiens, UniProt P28335).
T1 sequence (P28335 33-458): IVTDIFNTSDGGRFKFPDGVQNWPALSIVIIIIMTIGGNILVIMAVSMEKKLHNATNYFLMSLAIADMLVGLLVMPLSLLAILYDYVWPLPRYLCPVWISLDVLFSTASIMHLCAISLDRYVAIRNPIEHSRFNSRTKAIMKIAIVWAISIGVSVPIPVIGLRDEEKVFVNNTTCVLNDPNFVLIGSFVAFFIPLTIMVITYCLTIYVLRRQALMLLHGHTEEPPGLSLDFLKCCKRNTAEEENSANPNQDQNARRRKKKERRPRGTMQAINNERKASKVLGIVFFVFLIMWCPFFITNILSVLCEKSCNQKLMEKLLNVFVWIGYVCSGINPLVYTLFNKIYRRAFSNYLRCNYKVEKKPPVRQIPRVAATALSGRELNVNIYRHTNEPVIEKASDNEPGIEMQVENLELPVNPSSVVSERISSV
Kind of test: Binding selectivity for 5-HT6 relative to the 5-HT2C receptor. The note with it: selectivity 5-HT6 over 5-HT2C.

Test [3] addresses T2, human 5-HT6 receptor (Homo sapiens, UniProt P50406).
T2 construct: expressed in transfected cells; host or cells: recombinant cells
The test is described as follows: Binding affinity for the 5-HT6 receptor (3H-LSD displacement, membranes of recombinant cells). The note with it: 3H-LSD radioligand, 60 minute incubation at 37 °C. As to the method: All of the compounds of the invention were evaluated using cell types receptive specifically to the 5-HT6 receptor (for cloning and characterization of the human 5-HT6 receptor see Kohen, et al. J. Neurochemistry, 66, 1996: 47-56). […] After a 60 minute incubation at 37 °C, the incubation was terminated by vacuum filtration. The filters were washed with buffer and the filters were counted for radioactivity using liquid scintillation spectrometry. The affinity of the test compound for the 5-HT6 receptor was determined by computer-assisted analysis of the data and determining the amount of the compound necessary to inhibit 50% of the binding of the radioligand to the receptor. Concentrations ranging from 10^-11 M to 10^-5 M of the test compound were evaluated.

Where a name gives a salt, the structure may show the parent alone. Where only a bound is given, the exact number is not on record here.

Chain of 5-HT7 receptors (P34969 whole entry): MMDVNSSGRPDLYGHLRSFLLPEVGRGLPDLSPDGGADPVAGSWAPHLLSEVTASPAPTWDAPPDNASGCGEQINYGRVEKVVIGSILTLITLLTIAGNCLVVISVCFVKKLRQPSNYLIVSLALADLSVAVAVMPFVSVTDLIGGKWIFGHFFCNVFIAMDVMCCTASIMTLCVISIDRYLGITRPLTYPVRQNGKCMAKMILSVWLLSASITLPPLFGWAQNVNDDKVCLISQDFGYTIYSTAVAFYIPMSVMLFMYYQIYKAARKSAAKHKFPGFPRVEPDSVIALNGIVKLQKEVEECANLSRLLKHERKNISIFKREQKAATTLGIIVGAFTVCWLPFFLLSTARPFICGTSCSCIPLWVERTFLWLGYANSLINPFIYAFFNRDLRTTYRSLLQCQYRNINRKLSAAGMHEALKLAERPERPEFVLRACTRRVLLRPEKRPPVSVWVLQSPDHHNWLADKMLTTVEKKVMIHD
T2 sequence (P50406 whole entry): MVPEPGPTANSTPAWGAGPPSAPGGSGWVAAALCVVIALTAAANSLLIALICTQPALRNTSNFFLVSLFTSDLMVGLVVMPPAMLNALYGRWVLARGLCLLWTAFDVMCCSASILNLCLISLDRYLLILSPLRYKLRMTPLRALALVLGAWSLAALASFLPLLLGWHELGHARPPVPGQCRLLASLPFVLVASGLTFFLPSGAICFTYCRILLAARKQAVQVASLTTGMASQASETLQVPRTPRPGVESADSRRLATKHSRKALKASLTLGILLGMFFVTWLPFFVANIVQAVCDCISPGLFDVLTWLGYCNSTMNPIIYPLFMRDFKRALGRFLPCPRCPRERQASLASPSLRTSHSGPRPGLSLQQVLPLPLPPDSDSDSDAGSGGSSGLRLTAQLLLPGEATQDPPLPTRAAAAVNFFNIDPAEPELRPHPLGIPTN

Take `Cc1ccc(S(=O)(=O)n2cc(C3=CCN(C)CC3)c3cc(F)ccc32)cc1` [Example 3b, 5-Fluoro-1-(4-methylphenylsulfonyl)-3-(1-methyl-1,2,3,6-tetrahydro-4-pyridinyl)indole]: in test [1], the “fold greater affinity for the human 5-HT6 receptor relative to the human 5-HT7 receptor” value is reported as at least 60 fold. Besides, in test [2], the “fold greater affinity for the human 5-HT6 receptor relative to the human 5-HT2C receptor” value is at least 60 fold. In addition, the inhibition constant (Ki) in test [3] was at most 5 nM. With `CN1CC=C(c2cn(S(=O)(=O)c3ccccc3)c3ccccc23)CC1` [Example 4a, 3-(1-Methyl-1,2,3,6-tetrahydro-4-pyridinyl)-1-phenylsulfonylindole], the Ki in test [3] is at most 5 nM.

`CN1CC=C(c2cn(S(=O)(=O)c3cccc4ccccc34)c3c(F)cc(F)cc23)CC1` [Example 4aaa, 5,7-Difluoro-3-(1-methyl-1,2,3,6-tetrahydro-4-pyridinyl)-1-(1-naphthylsulfonyl)indole]: the inhibition constant (Ki) in test [3] was at most 5 nM.

On to `COc1ccc(S(=O)(=O)n2cc(C3=CCN(C)CC3)c3ccccc32)cc1` [Example 4b, 1-(4-Methoxyphenylsulfonyl)-3-(1-methyl-1,2,3,6-tetrahydro-4-pyridinyl)indole], for which, in test [3], the Ki is at most 50 nM. In the case of `CN1CC=C(c2cn(S(=O)(=O)c3ccc(Cl)cc3)c3ccc(F)cc23)CC1` [Example 4bb, 1-(4-Chlorophenylsulfonyl)-5-fluoro-3-(1-methyl-1,2,3,6-tetrahydro-4-pyridinyl)indole], in test [1], the “fold greater affinity for the human 5-HT6 receptor relative to the human 5-HT7 receptor” value was at least 60 fold. For the same compound, the “fold greater affinity for the human 5-HT6 receptor relative to the human 5-HT2C receptor” value in test [2] was at least 60 fold. For the same compound, the inhibitory constant (Ki) in test [3] is at most 5 nM. As to `CN1CC=C(c2cn(S(=O)(=O)c3ccc(F)cc3)c3ccccc23)CC1` [Example 4c, 1-(4-Fluorophenylsulfonyl)-3-(1-methyl-1,2,3,6-tetrahydro-4-pyridinyl)indole], the inhibition constant (Ki) in test [3] was at most 5 nM. Same read-out and setting: the same measure for `CN1CC=C(c2cn(S(=O)(=O)c3ccc(Br)cc3)c3ccc(F)cc23)CC1` [Example 4d, 1-(4-Bromophenylsulfonyl)-5-fluoro-3-(1-methyl-1,2,3,6-tetrahydro-4-pyridinyl)indole]: at most 50 nM; for `CN1CC=C(c2cn(S(=O)(=O)c3cc(Cl)ccc3Cl)c3ccc(F)cc23)CC1` [Example 4e, 5-Fluoro-1-(2,5-dichlorophenylsulfonyl)-3-(1-methyl-1,2,3,6-tetrahydro-4-pyridinyl)indole]: at most 50 nM. Same read-out and setting: the same measure for `CN1CC=C(c2cn(S(=O)(=O)c3cccc4ccccc34)c3ccc(F)cc23)CC1` [Example 4ee, 5-Fluoro-3-(1-methyl-1,2,3,6-tetrahydro-4-pyridinyl)-1-(1-naphthylsulfonyl)indole]: at most 5 nM; for `CN1CC=C(c2cn(S(=O)(=O)c3ccc(Cl)c([N+](=O)[O-])c3)c3ccc(F)cc23)CC1` [Example 4f, 1-(4-Chloro-3-nitrophenylsulfonyl)-5-fluoro-3-(1-methyl-1,2,3,6-tetrahydro-4-pyridinyl)indole]: at most 50 nM. On to `CN1CC=C(c2cn(S(=O)(=O)c3ccc4ccccc4c3)c3ccc(F)cc23)CC1` [Example 4ff, 5-Fluoro-3-(1-methyl-1,2,3,6-tetrahydro-4-pyridinyl)-1-(2-naphthylsulfonyl)indole], for which, in test [1], the “fold greater affinity for the human 5-HT6 receptor relative to the human 5-HT7 receptor” value is listed as at least 60 fold. Further, the “fold greater affinity for the human 5-HT6 receptor relative to the human 5-HT2C receptor” value in test [2] was at least 60 fold.

Take `Cc1cc(C)c(S(=O)(=O)n2cc(C3=CCN(C)CC3)c3cc(F)ccc32)c(C)c1` [Example 4g, 5-Fluoro-3-(1-methyl-1,2,3,6-tetrahydro-4-pyridinyl)-1-(2,4,6-trimethylphenylsulfonyl)indole]: the Ki in test [3] is at most 50 nM. Still for that read-out and setting: as for `CN1CC=C(c2cn(S(=O)(=O)c3ccc(F)cc3)c3ccc(Cl)cc23)CC1` [Example 4gg, 5-Chloro-1-(4-fluorophenylsulfonyl)-3-(1-methyl-1,2,3,6-tetrahydro-4-pyridinyl)indole], the figure is at most 5 nM.

With `Cc1ccc(S(=O)(=O)n2cc(C3=CCN(C)CC3)c3cc(OC4CCCCC4)ccc32)cc1` [Example 4i, 5-Cyclohexyloxy-1-(4-methylphenylsulfonyl)-3-(1-methyl-1,2,3,6-tetrahydro-4-pyridinyl)indole], in test [1], the “fold greater affinity for the human 5-HT6 receptor relative to the human 5-HT7 receptor” value is at least 60 fold. Besides, in test [2], the “fold greater affinity for the human 5-HT6 receptor relative to the human 5-HT2C receptor” value is listed as at least 60 fold. In test [3], the inhibitory constant (Ki) was at most 50 nM. Take `CN1CC=C(c2cn(S(=O)(=O)c3ccc(Cl)cc3)c3ccc(OC(F)(F)F)cc23)CC1` [Example 4jj, 1-(4-Chlorophenylsulfonyl)-3-(1-methyl-1,2,3,6-tetrahydro-4-pyridinyl)-5-trifluoromethoxyindole]: the Ki in test [3] is at most 5 nM.

`CN1CC=C(c2cn(S(=O)(=O)c3ccc(F)cc3)c3cc(Br)ccc23)CC1` [Example 4k, 6-Bromo-1-(4-fluorophenylsulfonyl)-3-(1-methyl-1,2,3,6-tetrahydro-4-pyridinyl)-indole]: the Ki in test [3] was at most 50 nM.

`Cc1ccc(S(=O)(=O)n2cc(C3=CCN(C)CC3)c3cc(OC(F)(F)F)ccc32)cc1` [Example 4kk, 1-(4-Methylphenylsulfonyl)-3-(1-methyl-1,2,3,6-tetrahydro-4-pyridinyl)-5-trifluoromethoxyindole]: the Ki in test [3] was at most 5 nM.

`Cc1ccc(S(=O)(=O)n2cc(C3=CCN(C)CC3)c3cc(C(F)(F)F)ccc32)cc1` [Example 4qq, 1-(4-Methylphenylsulfonyl)-3-(1-methyl-1,2,3,6-tetrahydro-4-pyridinyl)-5-trifluoromethylindole hydrochloride]: the Ki in test [3] is at most 50 nM. On the same count and under the same terms, as for `Cc1ccc(S(=O)(=O)n2cc(C3=CCN(C)CC3)c3cc(F)cc(F)c32)cc1` [Example 4ww, 5,7-Difluoro-3-(1-methyl-1,2,3,6-tetrahydro-4-pyridinyl)-1-(4-methylphenylsulfonyl)indole], the figure is at most 5 nM.

In the case of `CN1CC=C(c2cn(S(=O)(=O)c3ccccc3Br)c3ccc(F)cc23)CC1` [Example 4z, 1-(2-Bromophenylsulfonyl)-5-fluoro-3-(1-methyl-1,2.3,6-tetrahydro-4-pyridinyl)indole], the “fold greater affinity for the human 5-HT6 receptor relative to the human 5-HT7 receptor” value in test [1] is at least 60 fold. The “fold greater affinity for the human 5-HT6 receptor relative to the human 5-HT2C receptor” value in test [2] is on record as at least 60 fold. In test [3], the Ki was at most 5 nM. In the case of `CN1CC=C(c2cn(S(=O)(=O)c3ccc(Cl)cc3)c3c(F)cc(F)cc23)CC1` [Example 4zz, 1-(4-Chlorophenylsulfonyl)-5,7-difluoro-3-(1-methyl-1,2,3,6-tetrahydro-4-pyridinyl)indole], the inhibition constant Ki in test [3] was at most 5 nM.

In general, Ki refers to a dissociation constant, usually derived from enzyme kinetics or from competition with a known ligand.
